{"source": "ChEMBL document CHEMBL4118160", "about": "“Heterocycles: Versatile control elements in bioactive macrocycles” (Bioorg Med Chem, 2018)", "target": "Integrin alpha-V/beta-3 (Homo sapiens, UniProt P05106+P06756)", "sequence (P05106 27-788 limits assumed)": "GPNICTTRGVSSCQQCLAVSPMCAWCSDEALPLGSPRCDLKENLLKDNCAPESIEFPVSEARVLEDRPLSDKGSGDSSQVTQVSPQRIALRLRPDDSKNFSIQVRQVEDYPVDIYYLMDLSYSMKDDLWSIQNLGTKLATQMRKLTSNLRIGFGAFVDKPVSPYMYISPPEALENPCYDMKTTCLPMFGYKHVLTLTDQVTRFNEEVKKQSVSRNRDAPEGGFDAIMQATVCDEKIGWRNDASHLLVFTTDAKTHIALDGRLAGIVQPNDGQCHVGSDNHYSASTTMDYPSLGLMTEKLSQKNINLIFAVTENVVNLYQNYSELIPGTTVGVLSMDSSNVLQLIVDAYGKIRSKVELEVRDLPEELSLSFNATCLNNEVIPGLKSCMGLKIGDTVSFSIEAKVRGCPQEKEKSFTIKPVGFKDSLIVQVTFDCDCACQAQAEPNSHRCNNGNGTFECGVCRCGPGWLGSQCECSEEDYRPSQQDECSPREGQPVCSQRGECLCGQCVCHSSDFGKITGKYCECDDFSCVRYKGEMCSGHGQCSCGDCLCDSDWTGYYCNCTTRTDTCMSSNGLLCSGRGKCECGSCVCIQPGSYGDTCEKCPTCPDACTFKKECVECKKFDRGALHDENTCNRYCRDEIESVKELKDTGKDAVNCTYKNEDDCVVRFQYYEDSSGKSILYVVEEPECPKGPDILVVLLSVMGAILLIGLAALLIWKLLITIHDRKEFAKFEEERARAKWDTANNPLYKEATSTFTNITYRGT", "sequence (P06756 31-889 limits assumed)": "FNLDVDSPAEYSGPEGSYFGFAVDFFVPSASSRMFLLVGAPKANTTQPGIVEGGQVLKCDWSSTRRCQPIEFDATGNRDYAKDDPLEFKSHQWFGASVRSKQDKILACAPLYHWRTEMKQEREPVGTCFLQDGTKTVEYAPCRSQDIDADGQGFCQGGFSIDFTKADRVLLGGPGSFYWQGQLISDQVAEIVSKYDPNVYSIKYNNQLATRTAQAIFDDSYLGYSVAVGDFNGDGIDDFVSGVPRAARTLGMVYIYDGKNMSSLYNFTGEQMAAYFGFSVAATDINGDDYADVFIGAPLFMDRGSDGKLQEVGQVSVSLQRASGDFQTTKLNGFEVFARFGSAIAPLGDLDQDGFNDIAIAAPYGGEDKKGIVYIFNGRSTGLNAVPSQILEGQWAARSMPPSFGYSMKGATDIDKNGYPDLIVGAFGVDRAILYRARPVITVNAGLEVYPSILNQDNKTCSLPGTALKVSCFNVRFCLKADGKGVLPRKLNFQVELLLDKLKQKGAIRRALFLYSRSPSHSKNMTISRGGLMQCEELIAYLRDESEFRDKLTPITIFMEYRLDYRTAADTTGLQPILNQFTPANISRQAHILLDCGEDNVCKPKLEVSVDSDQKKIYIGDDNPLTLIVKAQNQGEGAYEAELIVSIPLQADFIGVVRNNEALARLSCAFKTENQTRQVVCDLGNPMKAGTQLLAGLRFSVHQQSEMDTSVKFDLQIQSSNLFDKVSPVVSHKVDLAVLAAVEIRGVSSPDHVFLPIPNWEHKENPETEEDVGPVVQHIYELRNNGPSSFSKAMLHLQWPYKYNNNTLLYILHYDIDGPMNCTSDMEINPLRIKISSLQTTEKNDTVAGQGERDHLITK", "sequence (P06756 891-1048 limits assumed)": "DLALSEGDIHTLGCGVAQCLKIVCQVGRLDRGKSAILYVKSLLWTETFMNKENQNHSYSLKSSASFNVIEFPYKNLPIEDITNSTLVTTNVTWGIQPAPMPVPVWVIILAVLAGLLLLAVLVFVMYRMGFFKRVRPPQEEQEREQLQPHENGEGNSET", "test": "Inhibition of vitronectin binding to alphaVbeta3 integrin (unknown origin) measured after 3 hrs", "format": "protein-complex assay"}
{"smiles": "N=C(N)NCCC[C@H]1NC(=O)CNC(=O)[C@@H](CC(=O)O)CN[C@@H]2O[C@H](C1=O)[C@@H](OCc1ccccc1)[C@H](OCc1ccccc1)[C@H]2OCc1ccccc1", "values": [{"measurement": "IC50", "value": "≤ 150", "unit": "nM"}]}
{"smiles": "N=C(N)NCCC[C@H]1NC(=O)CNC(=O)[C@@H](CC(=O)O)CN[C@H]2O[C@H](C1=O)[C@@H](OCc1ccccc1)[C@H](OCc1ccccc1)[C@H]2OCc1ccccc1", "values": [{"measurement": "IC50", "value": "≤ 150", "unit": "nM"}]}
